pEC50, pIC50: −log10 of the molar value. Where two headings read alike, the source gives them in different places.
Assays:
PDK1 kinase = molecular target: T1, PDK1 kinase (Homo sapiens, UniProt O15530); assay: PDK1 Kinase Alpha Screen Assay; format: biochemical
T1 sequence (O15530 1-556): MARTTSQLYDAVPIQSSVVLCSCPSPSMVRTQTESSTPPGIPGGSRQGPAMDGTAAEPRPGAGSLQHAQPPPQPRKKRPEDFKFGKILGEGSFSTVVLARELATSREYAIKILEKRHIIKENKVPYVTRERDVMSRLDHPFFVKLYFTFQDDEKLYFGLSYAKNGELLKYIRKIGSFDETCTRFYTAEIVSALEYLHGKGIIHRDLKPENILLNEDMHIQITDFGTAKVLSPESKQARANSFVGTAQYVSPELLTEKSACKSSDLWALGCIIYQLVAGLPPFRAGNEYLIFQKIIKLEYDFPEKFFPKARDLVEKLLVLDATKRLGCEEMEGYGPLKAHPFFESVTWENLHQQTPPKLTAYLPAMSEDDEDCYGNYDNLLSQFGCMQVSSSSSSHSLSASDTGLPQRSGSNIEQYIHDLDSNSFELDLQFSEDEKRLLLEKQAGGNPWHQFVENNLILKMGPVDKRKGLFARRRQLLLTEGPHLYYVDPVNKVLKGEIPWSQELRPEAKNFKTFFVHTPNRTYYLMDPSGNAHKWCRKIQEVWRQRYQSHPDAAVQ
How it was run: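 Detection used AlphaScreen: streptavidin donor and protein A acceptor beads (25 μg/ml each) bridged by a phospho-(Ser/Thr) PKA substrate antibody binding phosphorylated peptide. Reaction: biotin-PDK1-4 peptide (50 nM), ATP (10 uM), PDK1 in pH 7.5 Tris/MgCl2/DTT buffer, 3-18 hours, EDTA-stopped.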

PC-3 cells = assay: Cell Proliferation Assay (Cell Titer Glo), PC-3 cell line; format: cell-based; details: Homo sapiens
How it was run: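 Cell Titer Glo luminescence, read after fresh medium replaced the dosing medium, gave viability of PC-3 cells plated at 1000 cells/well. Compounds, 1:3 serially diluted in DMSO at 500× and then in medium, were added after 3-5 h adhesion and incubated 3 days at 37° C.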

[1] = PDK1 Kinase Alpha Screen Assay, read-out: PDK1 IC50
[2] = PC-3, Cell Proliferation Assay, PC3, read-out: CPEC50 PC3
[3] = PC-3, PC3 cells, read-out: CPEC50 PC3
[4] = PC-3, 72 h, PC-3 cells, 3 days incubation, read-out: CP EC50 PC3

SMILES | pIC50 (PDK1 kinase; [1]) | pEC50 (PC-3 cells; [2]) | other results
CC(C)N1CCC(Oc2cccc3cnc(Nc4cccc(NC(=O)N5CCCC5)c4)nc23)CC1 [Compound 525, N-(3-(8-(1-isopropylpiperidin-4-yloxy)quinazolin-2-ylamino)phenyl)pyrrolidine-1-carboxamide] | > 5.30 | > 5.30 | –
NC(=O)c1cc(Nc2ncc3c(Cl)ccc(OC4CCNCC4)c3n2)cc(C(F)(F)F)c1 [Compound 381, 3-(5-chloro-8-(piperidin-4-yloxy)quinazolin-2-ylamino)-5-(trifluoromethyl)benzamide] | > 5.30 | > 5.30 | –
C#Cc1cc(OC2CCNCC2)c2nc(Nc3ccc(C(=O)N4CCOCC4)cc3)ncc2c1 [Compound 705, (4-(6-ethynyl-8-(piperidin-4-yloxy)quinazolin-2-ylamino)phenyl)(morpholino)methanone] | > 5.30 | > 5.30 | –
CC(C)N1CCC(Oc2ccc3cnc(Nc4ccc(C(F)(F)F)cc4)nc3c2)CC1 [Compound 318, 7-(1-isopropylpiperidin-4-yloxy)-N-(4-(trifluoromethyl)phenyl)quinazolin-2-amine] | > 5.30 | > 5.30 | –
COc1c(NC2CCN(C)CC2)cc(Cl)c2cnc(Nc3ccc(C(=O)N4CCOCC4)cc3)nc12 [Compound 503, (4-(5-chloro-8-methoxy-7-(1-methylpiperidin-4-ylamino)quinazolin-2-ylamino)phenyl)(morpholino)methanone] | > 5.30 | 5.00 to 5.30 | –
Brc1ccc(OC2CCNCC2)c2nc(Nc3cccc(N4CCOCC4)c3)ncc12 [Compound 336, 5-bromo-N-(3-morpholinophenyl)-8-(piperidin-4-yloxy)quinazolin-2-amine] | > 5.30 | 5.00 to 5.30 | –
O=C(NC1CC1)c1ccc(Nc2ncc3c(Br)ccc(OC4CCNCC4)c3n2)cc1 [Compound 341, 4-(5-bromo-8-(piperidin-4-yloxy)quinazolin-2-ylamino)-N-cyclopropylbenzamide] | > 5.30 | 5.00 to 5.30 | –
N#Cc1cc2cnc(Nc3ccc(C(=O)N4CCOCC4)cc3)nc2cc1OC1CCNCC1 [Compound 640, 2-(4-(morpholine-4-carbonyl)phenylamino)-7-(piperidin-4-yloxy)quinazoline-6-carbonitrile] | > 5.30 | > 5.30 | –
CC(C)N1CCC(c2c(O)ccc3cnc(Nc4ccc(F)cc4)nc23)CC1 [Compound 940, 2-(4-fluorophenylamino)-8-(1-isopropylpiperidin-4-yl)quinazolin-7-ol] | – | – | pIC50 (PDK1 kinase; read-out: PDK1 IC50): > 5.30; pEC50 (PC-3 cells; [3]): 5.00 to 5.30
O=C(c1ccc(Nc2ncc3ccc(N(CCO)CCO)cc3n2)cc1)N1CCOCC1 [Compound 352, (4-(7-(bis(2-hydroxyethyl)amino)quinazolin-2-ylamino)phenyl)(morpholino)methanone] | > 5.30 | 5.00 to 5.30 | –
CC(C)N1CCC(Oc2ccc3cnc(Nc4cc(F)cc(F)c4)nc3c2)CC1 [Compound 574, N-(3,5-difluorophenyl)-7-(1-isopropylpiperidin-4-yloxy)quinazolin-2-amine] | > 5.30 | > 5.30 | –
CC(C)NC(=O)c1cc(Nc2ncc3cccc(OC4CCNCC4)c3n2)cc(C(F)(F)F)c1 [Compound 453, N-isopropyl-3-(8-(piperidin-4-yloxy)quinazolin-2-ylamino)-5-(trifluoromethyl)benzamide] | > 5.30 | > 5.30 | –
C#Cc1cc2cnc(Nc3ccc(C(=O)NC(C)C)cc3)nc2cc1-c1ccc2c(c1)CCNC2=O [Compound 1039, 4-(6-ethynyl-7-(1-oxo-1,2,3,4-tetrahydroisoquinolin-6-yl)quinazolin-2-ylamino)-N-isopropylbenzamide] | – | – | pIC50 (PDK1 kinase; head of the second part of Table 4: BV11261, read-out: PDK1 BV11261): > 5.30; pEC50 (PC-3 cells; [3]): > 5.30
CC(C)N1CCC(Oc2ccc3cnc(Nc4ccc(Cl)cc4)nc3c2)CC1 [Compound 57, (4-Chloro-phenyl)-[7-(1-isopropyl-piperidin-4-yloxy)-quinazolin-2-yl]-amine] | – | – | pIC50 (PDK1 kinase; read-out: PDK1 IC50): > 5.30; pEC50 (PC-3 cells; [4]): > 5.30
O=C(c1ccc(Nc2ncc3ccc(NCC4CCNCC4)cc3n2)cc1)N1CCOCC1 [Compound 351, morpholino(4-(7-(piperidin-4-ylmethylamino)quinazolin-2-ylamino)phenyl)methanone] | > 5.30 | 5.00 to 5.30 | –
Cc1ccc(OC2CCN(C(C)C)CC2)c2nc(Nc3ccc(C(=O)N4CCOCC4)cc3)ncc12 [Compound 359, (4-(8-(1-isopropylpiperidin-4-yloxy)-5-methylquinazolin-2-ylamino)phenyl)(morpholino)methanone] | > 5.30 | 5.00 to 5.30 | –

SMILES | pIC50 (PDK1 kinase; [1]) | pEC50 (PC-3 cells; [2]) | other results
C#Cc1ccc(OC2CCNCC2)c2nc(Nc3ccc(S(N)(=O)=O)cc3)ncc12 [Compound 469, 4-(5-ethynyl-8-(piperidin-4-yloxy)quinazolin-2-ylamino)benzenesulfonamide] | > 5.30 | 5.00 to 5.30 | –
NS(=O)(=O)c1ccc(Nc2ncc3cccc(-c4ccc(NCCN5CCOCC5)nc4)c3n2)cc1 [Compound 953, 4-(8-(6-(2-morpholinoethylamino)pyridin-3-yl)quinazolin-2-ylamino)benzenesulfonamide] | – | – | pIC50 (PDK1 kinase; read-out: PDK1 IC50): > 5.30; pEC50 (PC-3 cells; [3]): > 5.30
c1csc(-c2cc(OC3CCNCC3)c3nc(Nc4ccc(N5CCOCC5)cc4)ncc3c2)n1 [Compound 702, N-(4-morpholinophenyl)-8-(piperidin-4-yloxy)-6-(thiazol-2-yl)quinazolin-2-amine] | > 5.30 | > 5.30 | –
CN1CCC(Nc2ccc(-c3cccc4cnc(Nc5ccc(S(N)(=O)=O)cc5)nc34)cn2)CC1 [Compound 955, 4-(8-(6-(1-methylpiperidin-4-ylamino)pyridin-3-yl)quinazolin-2-ylamino)benzenesulfonamide] | – | – | pIC50 (PDK1 kinase; read-out: PDK1 IC50): > 5.30; pEC50 (PC-3 cells; [3]): > 5.30
COc1cccc(Nc2ncc3ccc(OC4CCN(C(C)C)CC4)cc3n2)c1 [Compound 576, 7-(1-isopropylpiperidin-4-yloxy)-N-(3-methoxyphenyl)quinazolin-2-amine] | > 5.30 | 5.00 to 5.30 | –
CC(C)N1CCC(c2c(O)ccc3cnc(Nc4nc5ccccc5s4)nc23)CC1 [Compound 326, 2-(benzo[d]thiazol-2-ylamino)-8-(1-isopropylpiperidin-4-yl)quinazolin-7-ol] | > 5.30 | 5.00 to 5.30 | –
O=C(O)c1cc(Nc2ncc3cccc(OC4CCNCC4)c3n2)cc(C(F)(F)F)c1 [Compound 450] | > 5.30 | 5.00 to 5.30 | –
CS(=O)(=O)c1cccc(Nc2ncc3cccc(-c4ccc(NCCN5CCCC5)nc4)c3n2)c1 [Compound 402, N-(3-(methylsulfonyl)phenyl)-8-(6-(2-(pyrrolidin-1-yl)ethylamino)pyridin-3-yl)quinazolin-2-amine] | > 5.30 | 5.00 to 5.30 | –
Cc1ccc(OC2CCNCC2)c2nc(Nc3ccc(S(N)(=O)=O)cc3)ncc12 [Compound 464, 4-(5-methyl-8-(piperidin-4-yloxy)quinazolin-2-ylamino)benzenesulfonamide] | > 5.30 | 5.00 to 5.30 | –
Cc1ccc(OC2CCNCC2)c2nc(Nc3ccc(C(=O)NC(C)C)cc3)ncc12 [Compound 340, N-isopropyl-4-(5-methyl-8-(piperidin-4-yloxy)quinazolin-2-ylamino)benzamide] | > 5.30 | 5.00 to 5.30 | –
CC(C)N1CCC(Oc2cccc3cnc(Nc4ccc(NC(=O)N5CCCC5)cc4)nc23)CC1 [Compound 75, Pyrrolidine-1-carboxylic acid {4-[8-(1-isopropyl-piperidin-4-yloxy)-quinazolin-2-ylamino]-phenyl}-amide] | – | – | pIC50 (PDK1 kinase; read-out: PDK1 IC50): > 5.30; pEC50 (PC-3 cells; [4]): > 5.30
NC(=O)c1cc(Nc2ncc3ccc(OC4CCNCC4)cc3n2)cc(C(F)(F)F)c1 [Compound 588, 3-(7-(piperidin-4-yloxy)quinazolin-2-ylamino)-5-(trifluoromethyl)benzamide] | > 5.30 | > 5.30 | –
NS(=O)(=O)c1ccc(Nc2ncc3ccccc3n2)cc1 [Compound 618, 4-(quinazolin-2-ylamino)benzenesulfonamide] | > 5.30 | 5.00 to 5.30 | –
O=C(O)c1ccc(Nc2ncc3cccc(OC4CCNCC4)c3n2)cc1Cl [Compound 481, 2-chloro-4-(8-(piperidin-4-yloxy)quinazolin-2-ylamino)benzoic acid] | > 5.30 | 5.00 to 5.30 | –
CC(C)N1CCC(Oc2cccc3cnc(Nc4cccc(Cl)c4)nc23)CC1 [Compound 528, N-(3-chlorophenyl)-8-(1-isopropylpiperidin-4-yloxy)quinazolin-2-amine] | > 5.30 | > 5.30 | –
COc1cc(C(=O)NC2CCN(C)CC2)ccc1Nc1ncc2c(C)ccc(OC3CCNCC3)c2n1 [Compound 375, 3-methoxy-4-(5-methyl-8-(piperidin-4-yloxy)quinazolin-2-ylamino)-N-(1-methylpiperidin-4-yl)benzamide] | 5.00 to 5.30 | 5.00 to 5.30 | –
